Test results: ChEMBL document CHEMBL5634117 (Eur J Med Chem, 2023)
pIC50: −log10 of the molar value.

Assays:
[1] = test system: SR; test: Growth inhibition of human SR cells assessed as reduction in cell viability measured after 48 hrs by SRB assay; assay type: functional
[2] = test system: K562; test: Growth inhibition of human K562 cells assessed as reduction in cell viability measured after 48 hrs by SRB assay; assay type: functional
[3] = test system: Malme-3M; test: Growth inhibition of human Malme-3M cells assessed as reduction in cell viability measured after 48 hrs by SRB assay; assay type: functional
[4] = test system: HOP-92; test: Growth inhibition of human HOP-92 cells assessed as reduction in cell viability measured after 48 hrs by SRB assay; assay type: functional
[5] = test system: SNB-75; test: Growth inhibition of human SNB-75 cells assessed as reduction in cell viability measured after 48 hrs by SRB assay; assay type: functional
[6] = test system: SNB-19; test: Growth inhibition of human SNB-19 cells assessed as reduction in cell viability measured after 48 hrs by SRB assay; assay type: functional
[7] = test system: NCI-H522; test: Growth inhibition of human NCI-H522 cells assessed as reduction in cell viability measured after 48 hrs by SRB assay; assay type: functional
[8] = test system: MDA-MB-435; test: Growth inhibition of human MDA-MB-435 cells assessed as reduction in cell viability measured after 48 hrs by SRB assay; assay type: functional
[9] = test system: SW-620; test: Growth inhibition of human SW620 cells assessed as reduction in cell viability measured after 48 hrs by SRB assay; assay type: functional
[10] = test system: CAKI-1; test: Growth inhibition of human CAKI-1 cells assessed as reduction in cell viability measured after 48 hrs by SRB assay; assay type: functional
[11] = test system: SF-539; test: Growth inhibition of human SF-539 cells assessed as reduction in cell viability measured after 48 hrs by SRB assay; assay type: functional
[12] = test system: SK-MEL-2; test: Growth inhibition of human SK-MEL-2 cells assessed as reduction in cell viability measured after 48 hrs by SRB assay; assay type: functional
[13] = test system: MDA-MB-468; test: Growth inhibition of human MDA-MB-468 cells assessed as reduction in cell viability measured after 48 hrs by SRB assay; assay type: functional
[14] = test system: SF-295; test: Growth inhibition of human SF-295 cells assessed as reduction in cell viability measured after 48 hrs by SRB assay; assay type: functional
[15] = target: T1, Mitogen-activated protein kinase 8 (Homo sapiens, UniProt P45983); test: Inhibition of human JNK1 at 10 uM in presence of ATP relative to control
[16] = test system: NCI-H322M; test: Growth inhibition of human NCI-H322M cells assessed as reduction in cell viability measured after 48 hrs by SRB assay; assay type: functional
[17] = test system: SK-OV-3; test: Growth inhibition of human SK-OV-3 cells assessed as reduction in cell viability measured after 48 hrs by SRB assay; assay type: functional
[18] = test system: UACC-257; test: Growth inhibition of human UACC-257 cells assessed as reduction in cell viability measured after 48 hrs by SRB assay; assay type: functional
[19] = test system: PC-3; test: Growth inhibition of human PC-3 cells assessed as reduction in cell viability measured after 48 hrs by SRB assay; assay type: functional
[20] = test system: HCC 2998; test: Growth inhibition of human HCC 2998 cells assessed as reduction in cell viability measured after 48 hrs by SRB assay; assay type: functional
[21] = test system: NCI/ADR-RES; test: Growth inhibition of human NCI/ADR-RES cells assessed as reduction in cell viability measured after 48 hrs by SRB assay; assay type: functional
[22] = test system: CCRF-CEM; test: Growth inhibition of human CCRF-CEM cells assessed as reduction in cell viability measured after 48 hrs by SRB assay; assay type: functional
[23] = test system: NCI-H460; test: Growth inhibition of human NCI-H460 cells assessed as reduction in cell viability measured after 48 hrs by SRB assay; assay type: functional
[24] = test system: BT-549; test: Growth inhibition of human BT-549 cells assessed as reduction in cell viability measured after 48 hrs by SRB assay; assay type: functional
[25] = test system: OVCAR-3; test: Growth inhibition of human OVCAR-3 cells assessed as reduction in cell viability measured after 48 hrs by SRB assay; assay type: functional
[26] = test system: TK-10; test: Growth inhibition of human TK-10 cells assessed as reduction in cell viability measured after 48 hrs by SRB assay; assay type: functional
[27] = test system: COLO 205; test: Growth inhibition of human COLO 205 cells assessed as reduction in cell viability measured after 48 hrs by SRB assay; assay type: functional
[28] = test system: Hs-578T; test: Growth inhibition of human Hs-578T cells assessed as reduction in cell viability measured after 48 hrs by SRB assay; assay type: functional
[29] = test system: UACC-62; test: Growth inhibition of human UACC-62 cells assessed as reduction in cell viability measured after 48 hrs by SRB assay; assay type: functional
[30] = test system: HT-29; test: Growth inhibition of human HT-29 cells assessed as reduction in cell viability measured after 48 hrs by SRB assay; assay type: functional
[31] = test system: 786-0; test: Growth inhibition of human 786-0 cells assessed as reduction in cell viability measured after 48 hrs by SRB assay; assay type: functional
[32] = test system: KM12; test: Growth inhibition of human KM12 cells assessed as reduction in cell viability measured after 48 hrs by SRB assay; assay type: functional
[33] = target: T1, Mitogen-activated protein kinase 8; test: Inhibition of human JNK1 in presence of ATP
[34] = test system: SF-268; test: Growth inhibition of human SF-268 cells assessed as reduction in cell viability measured after 48 hrs by SRB assay; assay type: functional
[35] = test system: NCI-H226; test: Growth inhibition of human NCI-H226 cells assessed as reduction in cell viability measured after 48 hrs by SRB assay; assay type: functional
[36] = test system: HOP-62; test: Growth inhibition of human HOP-62 cells assessed as reduction in cell viability measured after 48 hrs by SRB assay; assay type: functional
[37] = test system: MDA-MB-231; test: Growth inhibition of human MDA-MB-231 cells assessed as reduction in cell viability measured after 48 hrs by SRB assay; assay type: functional
[38] = test system: IGROV-1; test: Growth inhibition of human IGROV-1 cells assessed as reduction in cell viability measured after 48 hrs by SRB assay; assay type: functional
[39] = test system: T47D; test: Growth inhibition of human T47D cells assessed as reduction in cell viability measured after 48 hrs by SRB assay; assay type: functional
[40] = target: Mitogen-activated protein kinase 9 (Homo sapiens, UniProt P45984); test: Inhibition of human JNK2 at 10 uM in presence of ATP relative to control
[41] = test system: DU-145; test: Growth inhibition of human DU-145 cells assessed as reduction in cell viability measured after 48 hrs by SRB assay; assay type: functional
[42] = test system: SK-MEL-28; test: Growth inhibition of human SK-MEL-28 cells assessed as reduction in cell viability measured after 48 hrs by SRB assay; assay type: functional
[43] = test system: SN12C; test: Growth inhibition of human SN12C cells assessed as reduction in cell viability measured after 48 hrs by SRB assay; assay type: functional
[44] = test system: OVCAR-4; test: Growth inhibition of human OVCAR-4 cells assessed as reduction in cell viability measured after 48 hrs by SRB assay; assay type: functional
[45] = test system: UO-31; test: Growth inhibition of human UO-31 cells assessed as reduction in cell viability measured after 48 hrs by SRB assay; assay type: functional
[46] = test system: HCT-116; test: Growth inhibition of human HCT-116 cells assessed as reduction in cell viability measured after 48 hrs by SRB assay; assay type: functional

T1 sequence (P45983 whole entry): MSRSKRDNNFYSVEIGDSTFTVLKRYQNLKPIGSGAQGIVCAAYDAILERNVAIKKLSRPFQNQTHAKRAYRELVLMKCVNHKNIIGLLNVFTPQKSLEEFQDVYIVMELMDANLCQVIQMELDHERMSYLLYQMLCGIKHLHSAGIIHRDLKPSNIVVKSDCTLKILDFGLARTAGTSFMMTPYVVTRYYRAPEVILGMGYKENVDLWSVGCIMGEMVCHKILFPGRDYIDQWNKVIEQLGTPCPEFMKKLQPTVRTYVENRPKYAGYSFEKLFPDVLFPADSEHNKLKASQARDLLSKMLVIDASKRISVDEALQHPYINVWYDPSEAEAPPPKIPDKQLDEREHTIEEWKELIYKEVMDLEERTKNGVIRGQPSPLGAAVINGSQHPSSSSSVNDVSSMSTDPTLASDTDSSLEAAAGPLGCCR
Mitogen-activated protein kinase 9, sequence (P45984 whole entry, looked up): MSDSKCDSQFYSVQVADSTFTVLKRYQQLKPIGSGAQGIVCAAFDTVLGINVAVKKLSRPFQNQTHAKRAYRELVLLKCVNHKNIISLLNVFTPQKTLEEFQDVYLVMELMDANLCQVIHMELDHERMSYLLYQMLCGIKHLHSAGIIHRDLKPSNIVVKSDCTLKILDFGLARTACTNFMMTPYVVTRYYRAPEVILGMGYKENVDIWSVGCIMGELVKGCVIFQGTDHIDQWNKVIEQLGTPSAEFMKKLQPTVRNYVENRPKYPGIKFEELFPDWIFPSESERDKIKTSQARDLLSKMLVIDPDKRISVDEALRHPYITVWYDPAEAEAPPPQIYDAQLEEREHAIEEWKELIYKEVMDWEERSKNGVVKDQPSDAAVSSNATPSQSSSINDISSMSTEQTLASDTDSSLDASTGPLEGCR

## CC(C)(C)n1cc(-c2ccnc(NCCCNS(=O)(=O)c3ccc(C(F)(F)F)cc3)c2)c(-c2cccc(O)c2)n1
[1]
  GI50: 2.21 µM
[2]
  GI50: 2.1 µM
[3]
  GI50: 1.72 µM
[4]
  GI50: 1.6 µM
[5]
  GI50: 1.94 µM
[6]
  GI50: 1.98 µM
[7]
  GI50: 1.99 µM
[8]
  GI50: 1.81 µM
[9]
  GI50: 1.89 µM
[10]
  GI50: 1.99 µM
[11]
  GI50: 1.65 µM
[12]
  GI50: 2.1 µM
[13]
  GI50: 1.88 µM
[14]
  GI50: 1.69 µM
[15]
  inhibition: 99.5%
[16]
  GI50: 2.07 µM
[17]
  GI50: 2.69 µM
[18]
  GI50: 2.07 µM
[19]
  GI50: 1.64 µM
[20]
  GI50: 1.82 µM
[21]
  GI50: 2.07 µM
[22]
  GI50: 2.98 µM
[23]
  GI50: 1.86 µM
[24]
  GI50: 1.61 µM
[25]
  GI50: 1.96 µM
[26]
  GI50: 2.31 µM
[27]
  GI50: 1.95 µM
[28]
  GI50: 1.98 µM
[29]
  GI50: 1.69 µM
[30]
  GI50: 1.45 µM
[31]
  GI50: 1.8 µM
[32]
  GI50: 2.15 µM
[33]
  pIC50: 6.85
[34]
  GI50: 1.75 µM
[35]
  GI50: 2.35 µM
[36]
  GI50: 1.93 µM
[37]
  GI50: 2.13 µM
[38]
  GI50: 1.8 µM
[39]
  GI50: 2.24 µM
[40]
  inhibition: 98.7%
[41]
  GI50: 1.94 µM
[42]
  GI50: 1.75 µM
[43]
  GI50: 1.61 µM
[44]
  GI50: 2.29 µM
[45]
  GI50: 1.58 µM
[46]
  GI50: 1.55 µM

## CC(C)(C)n1cc(-c2ccnc(NCCCNS(=O)(=O)c3ccc(Cl)cc3)c2)c(-c2cccc(O)c2)n1
[1]
  GI50: 1.75 µM
[2]
  GI50: 1.28 µM
[3]
  GI50: 1.66 µM
[4]
  GI50: 1.49 µM
[5]
  GI50: 1.37 µM
[6]
  GI50: 2.18 µM
[7]
  GI50: 1.92 µM
[8]
  GI50: 1.79 µM
[9]
  GI50: 1.77 µM
[10]
  GI50: 2.06 µM
[11]
  GI50: 1.65 µM
[12]
  GI50: 1.92 µM
[13]
  GI50: 1.8 µM
[14]
  GI50: 1.79 µM
[15]
  inhibition: 100%
[16]
  GI50: 2.46 µM
[17]
  GI50: 2.35 µM
[18]
  GI50: 1.86 µM
[19]
  GI50: 1.36 µM
[20]
  GI50: 1.76 µM
[21]
  GI50: 1.92 µM
[22]
  GI50: 2.13 µM
[23]
  GI50: 1.94 µM
[24]
  GI50: 1.67 µM
[25]
  GI50: 1.89 µM
[26]
  GI50: 2.38 µM
[27]
  GI50: 1.66 µM
[28]
  GI50: 1.84 µM
[29]
  GI50: 1.65 µM
[30]
  GI50: 1.44 µM
[31]
  GI50: 2.03 µM
[32]
  GI50: 2.08 µM
[33]
  pIC50: 7.36
[34]
  GI50: 2.18 µM
[35]
  GI50: 2.11 µM
[36]
  GI50: 1.74 µM
[37]
  GI50: 1.87 µM
[38]
  GI50: 1.88 µM
[39]
  GI50: 1.82 µM
[40]
  inhibition: 98.9%
[41]
  GI50: 2.75 µM
[42]
  GI50: 1.57 µM
[43]
  GI50: 1.65 µM
[44]
  GI50: 1.94 µM
[45]
  GI50: 1.89 µM
[46]
  GI50: 1.67 µM
